Consider 31 compounds from patent US20230416205A1, “COMPOUNDS, COMPOSITIONS, AND METHODS” (Denali Therapeutics Inc, priority 2020, published 2023).

This test deals with NLRP3. Kind of test: IL-1β secretion assay in PMA-differentiated, LPS/nigericin-stimulated THP-1 cells (384-well, ELISA read-out). It is filed as cell-based, human. The method in brief:
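THP-1 cells differentiated with PMA (5 ng/mL, 40 h), primed in serum-free medium with 25 ng/mL LPS for 2 h, treated with compounds 1 h (0.5% DMSO), then stimulated with nigericin for 2 h at 37 °C. Supernatant IL-1β measured by ELISA; responses normalized to LPS+5 μM nigericin and LPS-only controls.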
(In general: ELISA stands for enzyme-linked immunosorbent assay.)

The mark [1] stands for this setting: Homo sapiens, THP-1, IL-1β secretion, PMA-differentiated THP-1 cells, LPS then nigericin stimulation, ELISA read at 450 nm, read-out: Activity.
[2] abbreviates: Homo sapiens, THP-1, Table 4, IL-1β secretion, LPS/nigericin-stimulated THP-1 cells, read-out: IC50.

pIC50: −log10 of the molar value. Like-named read-outs stand apart in the source and are kept apart here. A value given as a limit tells only on which side of the number the result lay.

With `O=C(CN1CC2(CC2)c2cc(Br)ccc2C1=O)Nc1cn2ccnc2cn1` [Example 179, 2-(6-bromo-1-oxospiro[3H-isoquinoline-4,1′-cyclopropane]-2-yl)-N-imidazo[1,2-a]pyrazin-6-ylacetamide], the pIC50 under setting [1] was above 5.00 and the pIC50 under setting [2] was 5.65. Take `C[C@]1(O)C[C@@H](NC(=O)CN2CC3(CC3)c3cc(Br)ccc3C2=O)C1` [Example 19, 2-(6-bromo-1-oxospiro[3H-isoquinoline-4,1′-cyclopropane]-2-yl)-N-(cis-3-hydroxy-3-methylcyclobutyl)acetamide]: the pIC50 is, setting by setting: under setting [1], above 5.00; under setting [2], 6.82. In the same order, the values of `O=C(CN1CC2(CC2)c2cc(Br)ccc2C1=O)NCc1cccnc1C(F)(F)F` [Example 151] are above 5.00 and 5.04.

Take `CC1(O)CC(NC(=O)CN2C[C@]3(C[C@H]3F)c3cc(Br)ccc3C2=O)C1` (stereo partly drawn) [Example 321, N-(cis-3-hydroxy-3-methylcyclobutyl)-2-[(2′R,4S)-6-bromo-2′-fluoro-1-oxospiro[3H-isoquinoline-4,1′-cyclopropane]-2-yl]acetamide]: under setting [2], the pIC50 is 8.05. As to `CC1CC12CN(CC(=O)Nc1ncccn1)C(=O)c1ccc(C(F)(F)F)cc12` (centres unmarked) [Example 29, 2-[2′-methyl-1-oxo-6-(trifluoromethyl)spiro[3H-isoquinoline-4,1′-cyclopropane]-2-yl]-N-pyrimidin-2-yl-acetamide], the pIC50 was above 5.00 under setting [1] and 6.41 under setting [2]. Taken in the same sequence, the figures for `CC1(C)CN(CC(=O)N[C@@H]2CCCN(C3CCC3)C2)C(=O)c2ccc(Br)cc21` [Example 26, (R)-2-(6-bromo-4,4-dimethyl-1-oxo-3,4-dihydroisoquinolin-2(1H)-yl)-N-(1-cyclobutylpiperidin-3-yl)acetamide] were above 5.00 and 6.35.

As to `Cn1ccc(N2CCC(NC(=O)CN3CC4(CC4)c4cc(Br)ccc4C3=O)C2)n1` (centres unmarked) [Example 415, 2-(6-bromo-1-oxospiro[3H-isoquinoline-4,1′-cyclopropane]-2-yl)-N-[1-(1-methylpyrazol-3-yl)pyrrolidin-3-yl]acetamide], the pIC50 under setting [2] is 4.68. In the case of `CC(C)(O)C1CCN(C(=O)CN2CC3(CC3)c3cc(Br)ccc3C2=O)C1` (centres unmarked) [Example 66, 6-bromo-2-[2-[3-(1-hydroxy-1-methyl-ethyl)pyrrolidin-1-yl]-2-oxo-ethyl]spiro[3H-isoquinoline-4,1′-cyclopropane]-1-one], the pIC50 was below 4.82 under setting [1] and 4.58 under setting [2]. Consider `O=C(CN1CC2(CC2)c2cc(Br)ccc2C1=O)NCC1(CC(F)F)CCC1` [Example 112, 2-(6-bromo-1-oxospiro[3H-isoquinoline-4,1′-cyclopropane]-2-yl)-N-[[1-(2,2-difluoroethyl)cyclobutyl]methyl]acetamide], for which the pIC50 under setting [1] was below 4.82 and the pIC50 under setting [2] was 4.89. Taken in the same sequence, the figures for `C[C@@H](F)[C@H]1CN(CC(=O)Nc2ncc(F)cn2)C(=O)c2ccc(Br)cc21` [Example 294, 2-[(4r)-6-bromo-4-[(1r)-1-fluoroethyl]-1-oxo-3,4-dihydroisoquinolin-2-yl]-N-(5-fluoropyrimidin-2-yl)acetamide] were above 5.00 and 6.69. Taken in the same sequence, the figures for `O=C(CN1CC2(CC2)c2cc(Br)ccc2C1=O)Nc1ncc(Cl)cc1F` [Example 8] were above 5.00 and 6.67. Taken in the same sequence, the figures for `O=C(CN1CC2(CC2)c2cc(Br)ccc2C1=O)Nc1ccc2nccn2n1` [Example 180, 2-(6-bromo-1-oxospiro[3H-isoquinoline-4,1′-cyclopropane]-2-yl)-N-imidazo[1,2-b]pyridazin-6-ylacetamide] were above 5.00 and 6.29. As for `O=C(CN1CC2(CC2)c2c(ccc(C(F)(F)F)c2F)C1=O)Nc1ncc(F)cn1` [Example 35, 2-[5-fluoro-1-oxo-6-(trifluoromethyl)spiro[3H-isoquinoline-4,1′-cyclopropane]-2-yl]-N-(5-fluoropyrimidin-2-yl)acetamide], the pIC50 runs as follows: under setting [1], above 5.00; under setting [2], 6.44.

Consider `O=C(CN1CC2(CC2)c2c(ccc(C3C[C@H]3F)c2F)C1=O)Nc1ncc(F)cn1` (single isomer, unassigned) [Example 304, 2-[5-fluoro-6-[(1r,2r)-2-fluorocyclopropyl]-1-oxospiro[3H-isoquinoline-4-1′-cyclopropane]-2-yl]-N-(5-fluoropyrimidin-2-yl)acetamide], for which the pIC50 (Table 4, IL-1β secretion, LPS/nigericin-stimulated THP-1 cells, read-out: IC50) is 5.59. On to `Cn1cnc(NC(=O)CN2CC3(CC3)c3cc(Br)ccc3C2=O)n1` [Example 371, 2-(6-bromo-1-oxospiro[3H-isoquinoline-4,1′-cyclopropane]-2-yl)-N-(1-methyl-1,2,4-triazol-3-yl)acetamide], for which the pIC50 under setting [2] was 5.84. Turning to `Cc1nc(NC(=O)CN2CC3(CC3)c3cc(Br)ccc3C2=O)c(F)cc1C#N` [Example 390, 2-(6-bromo-1-oxospiro[3H-isoquinoline-4,1′-cyclopropane]-2-yl)-N-(5-cyano-3-fluoro-6-methylpyridin-2-yl)acetamide], the pIC50 under setting [2] was 5.01. Consider `Cn1nccc1CNC(=O)CN1CC2(CC2)c2cc(Br)ccc2C1=O` [Example 124, 2-(6-bromo-1-oxospiro[3H-isoquinoline-4,1′-cyclopropane]-2-yl)-N-[(2-methylpyrazol-3-yl)methyl]acetamide], for which the pIC50 by setting is: under setting [1], below 4.82; under setting [2], 4.56. In the same order, the values of `CC12CC(NC(=O)CN3CC4(CC4)c4cc(Br)ccc4C3=O)(CO1)C2` [Example 53, 2-(6-bromo-1-oxo-spiro[3H-isoquinoline-4,1′-cyclopropane]-2-yl)-N-(1-methyl-2-oxabicyclo[2.1.1]hexan-4-yl)acetamide] are above 5.00 and 5.11. In the same order, the values of `O=C(CN1CC2(CC2)c2cc(Br)ccc2C1=O)NCC1CCC1` [Example 164, 2-(6-bromo-1-oxospiro[3H-isoquinoline-4,1′-cyclopropane]-2-yl)-N-(cyclobutylmethyl)acetamide] are above 5.00 and 5.22. In the same order, the values of `O=C(CN1CC2(CC2)c2cc(Br)ccc2C1=O)Nc1ccc2[nH]nnc2c1` [Example 167, N-(1H-benzotriazol-5-yl)-2-(6-bromo-1-oxospiro[3H-isoquinoline-4,1′-cyclopropane]-2-yl)acetamide] are above 5.00 and 6.84. Turning to `O=C(CN1CC2(CC2)c2cc(Br)ccc2C1=O)NC1CCCC(O)C1` (centres unmarked) [Example 58, 2-(6-bromo-1-oxo-spiro[3H-isoquinoline-4,1′-cyclopropane]-2-yl)-N-(3-hydroxycyclohexyl)acetamide], the pIC50 by setting is: under setting [1], above 5.00; under setting [2], 5.51. Consider `Cn1cc(NC(=O)CN2CC3(CC3)c3cc(Br)ccc3C2=O)ncc1=O` [Example 337, 2-(6-bromo-1-oxospiro[3H-isoquinoline-4,1′-cyclopropane]-2-yl)-N-(4-methyl-5-oxopyrazin-2-yl)acetamide], for which the pIC50 under setting [2] is 5.13.

As to `O=C(CN1CC2(CC2)c2cc(Br)ccc2C1=O)Nc1ncc(C(F)(F)F)cn1` [Example 193, 2-(6-bromo-1-oxospiro[3H-isoquinoline-4,1′-cyclopropane]-2-yl)-N-[5-(trifluoromethyl)pyrimidin-2-yl]acetamide], the pIC50 runs as follows: under setting [1], above 5.00; under setting [2], 6.62. Consider `COCCn1cc(NC(=O)CN2CC3(CC3)c3cc(Br)ccc3C2=O)cn1` [Example 138, 2-(6-bromo-1-oxospiro[3H-isoquinoline-4,1′-cyclopropane]-2-yl)-N-[1-(2-methoxyethyl)pyrazol-4-yl]acetamide], for which the pIC50 under setting [1] is below 4.82 and the pIC50 under setting [2] is 4.69. As for `COc1ccc(NC(=O)CN2CC3(CC3)c3cc(Br)ccc3C2=O)cn1` [Example 418, 2-(6-bromo-1-oxospiro[3H-isoquinoline-4,1′-cyclopropane]-2-yl)-N-(6-methoxypyridin-3-yl)acetamide], the pIC50 under setting [2] is 5.46.

With `Cn1cnc2cc(NC(=O)CN3CC4(CC4)c4cc(Br)ccc4C3=O)ccc21` [Example 147, 2-(6-bromo-1-oxospiro[3H-isoquinoline-4,1′-cyclopropane]-2-yl)-N-(1-methylbenzimidazol-5-yl)acetamide], the pIC50 was above 5.00 under setting [1] and 5.09 under setting [2].

Turning to `O=C(CN1CC2(CC2)c2cc(Br)ccc2C1=O)N[C@@H]1CCCN(C2COC2)C1` [Example 365, 2-(6-bromo-1-oxospiro[3H-isoquinoline-4,1′-cyclopropane]-2-yl)-N-[(3R)-1-(oxetan-3-yl)piperidin-3-yl]acetamide], the pIC50 under setting [2] was 5.67. Still for that read-out and setting: next, `O=C(CN1CC2(CC2)c2cc(Br)ccc2C1=O)Nc1nnc2ccccc2n1` [Example 352, N-(1,2,4-benzotriazin-3-yl)-2-(6-bromo-1-oxospiro[3H-isoquinoline-4,1′-cyclopropane]-2-yl)acetamide]: 5.22. In the case of `Cc1ccnc(NC(=O)CN2CC3(CC3)c3cc(Br)ccc3C2=O)c1` [Example 182, 2-(6-bromo-1-oxospiro[3H-isoquinoline-4,1′-cyclopropane]-2-yl)-N-(4-methylpyridin-2-yl)acetamide], the pIC50 reads like this: under setting [1], above 5.00; under setting [2], 5.50.

Consider `O=C(CN1CC2(CC2)c2cc(Br)ccc2C1=O)NCc1ccncc1` [Example 122, 2-(6-bromo-1-oxospiro[3H-isoquinoline-4,1′-cyclopropane]-2-yl)-N-(pyridin-4-ylmethyl)acetamide], for which the pIC50 is below 4.82 under setting [1] and 4.52 under setting [2]. In the same order, the values of `O=C(CN1C[C@]2(C[C@H]2F)c2c(ccc(Br)c2F)C1=O)Nc1ncccn1` (single isomer, unassigned) [Example 227, 2-[(2′s,4r)-6-bromo-2′,5-difluoro-1-oxospiro[3H-isoquinoline-4,1′-cyclopropane]-2-yl]-N-pyrimidin-2-ylacetamide] are above 5.00 and 6.90.
